Results taken from US6514945B1, “Azalide antibiotic compositions” (Pfizer Inc., priority 2000, dated 2003).

Assay: Equilibration of azalide isomers I and II in heated aqueous acid, monitored by HPLC (Table 1)
Type: physicochemical
Settings: isomer I prior to equilibration, for comparison
Method: The equilibrium ratio of isomers I and II (about 90%±4% to about 10%±4%, respectively) was consistent for all experiments. […] Without being bound by any theory, lower equilibration temperatures or lower pH values generally result in substantially longer equilibration times. Equilibration time can also depend on, inter alia, the concentration of starting material, and the type and concentration of the acid used. Isomer I at a concentration of up to about 300 mg per mL of composition was heated to a temperature of about 40° C. to about 80° C. in the presence of one or more acids at a concentration of about 0.2 mmol to about 1.0 mmol per mL of mixture and with a sufficient quantity of hydrochloric acid to achieve a pH of about 6.5 to about 7.5 for up to about 20 hours to produce an equilibrium mixture of isomers that is about […] pure. Equilibration kinetic parameters and impurity levels for equilibration of azalide isomers I and II were determined as a function of pH, equilibration temperature, type of acid, and isomer I concentration and are listed in Table 1. […]
Equilibrium mixtures of isomers were prepared and assayed as follows. […] 100 mL of solution were prepared in each of experiments 25C-28C, 200 mL of solution were prepared in each of experiments 29C-30C, and equilibration was monitored from 0.5 mL aliquots removed from the solutions. […]

% Equilibrium mixture of isomers: 98.39%
% Impurities: 1.61%
SMILES: CCCNC[C@]1(O)[C@H](C)O[C@@H](O[C@H]2[C@H](C)[C@@H](OC3O[C@H](C)C[C@H](N(C)C)[C@H]3O)C(C)(O)C[C@@H](C)CN[C@H](C)[C@@H](O)[C@](C)(O)[C@@H](CC)OC(=O)[C@@H]2C)C[C@@]1(C)OC (single isomer, unassigned) [isomer I]
